Test results taken from ChEMBL document CHEMBL3988442, “University of Dundee, Small-Polar-MMV Screening Library” (2021).

What follows are compounds tested against T1, Coenzyme A biosynthesis bifunctional protein CoaBC (Mycobacterium tuberculosis (strain ATCC 25618 / H37Rv), UniProt P9WNZ1) (assay: Biomol Green assay for MtCoaBC inhibitor, OD650 read).
T1 sequence (P9WNZ1 whole entry): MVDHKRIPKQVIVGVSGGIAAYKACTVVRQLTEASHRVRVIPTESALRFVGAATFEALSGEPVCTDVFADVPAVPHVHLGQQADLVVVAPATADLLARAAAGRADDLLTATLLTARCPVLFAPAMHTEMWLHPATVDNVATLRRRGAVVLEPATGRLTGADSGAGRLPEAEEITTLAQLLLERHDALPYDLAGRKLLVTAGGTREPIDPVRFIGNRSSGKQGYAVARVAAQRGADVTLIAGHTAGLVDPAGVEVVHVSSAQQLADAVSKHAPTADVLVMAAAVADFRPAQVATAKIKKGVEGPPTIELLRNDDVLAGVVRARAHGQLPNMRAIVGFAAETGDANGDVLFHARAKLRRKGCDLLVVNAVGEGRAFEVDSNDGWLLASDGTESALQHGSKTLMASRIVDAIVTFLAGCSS
Format: functional

Row | SMILES | IC50 [µM]
1 | Cc1nn(C)c(Cl)c1C1CCCN1CC(=O)Nc1cccnc1 (centres undefined) | > 30.2
2 | c1ccc(-c2nc(CN3CCCC3Cn3cncn3)co2)cc1 (centres undefined) | > 30.2
3 | Cc1nonc1C1CCCN1Cc1ccc(C(=O)Nc2nccs2)cc1 (centres undefined) | > 30.2
4 | Cc1cccc(NC2CCN(C(=O)Nc3cn[nH]c3)CC2)n1 | > 30.2
5 | CN(Cc1nnc(C2CC2)n1C)C1CCN(Cc2ccncc2)C1 (centres undefined) | > 30.2
6 | Cc1ccc(CNC(=O)COc2ccc3c(c2)OCC3O)cc1 (centres undefined) | > 30.2
7 | O=C1CN(Cc2cn(CC3CCCN(C4CCSCC4)C3)nn2)CCN1 (centres undefined) | > 30.2
8 | CC(C)c1noc(CN2CCN(C(=O)c3cc(Cl)ccc3F)CC2)n1 | > 30.2
9 | CCC(=O)N1CCc2[nH]cnc2C12CCN(CC1CCOC1)CC2 (centres undefined) | > 30.2
10 | CC(NC(=O)CNC(=O)OC(C)(C)C)c1ccc(Cl)s1 (centres undefined) | > 30.2
11 | COCCN1CCN(Cc2cnc(C3(C)CCCCO3)nc2)CC1 (centres undefined) | > 50.1
12 | CC(C(=O)N1CCCC1)S(=O)(=O)Cc1noc(C(C)(C)C)n1 (centres undefined) | > 30.2
13 | Cc1nn(CC(=O)N2CCN(c3ncccn3)CC2)c(C)c1Cl | > 30.2
14 | Cc1cc(C)n(C2CN(c3ncnc4c3CCC4)C2)n1 | > 30.2
15 | Cc1nn(CCO)c(C)c1CNCc1cccnc1N(C)C | > 30.2
16 | Cc1ccc(C(=O)O)cc1CNC(=O)CN1CC[C@](C)(O)C(C)(C)C1 | > 30.2
17 | Cc1nc2c(c(=O)[nH]1)CN(Cc1ccc3c(c1)CCCN3C)CC2 | > 30.2
18 | Cc1ccc(-n2c(O)cc(C)c(C#N)c2=O)c(C)c1 | > 30.2
19 | CN1CCN([C@H]2CCN(C(=O)c3cc(Cl)cn3C)C[C@H]2CCCO)CC1 | > 30.2
20 | CC(C)CC(NC(=O)c1cccs1)c1nc2cccnc2n1C (centres undefined) | > 30.2
21 | CC(Cc1ccco1)NC(=O)CCn1cccn1 (centres undefined) | > 30.2
22 | Cc1nnc(N2C[C@@H](OCC3CCCC3)[C@H]3OCCC[C@H]32)s1 | > 30.2
23 | CC(C)CCn1c(=O)n(CCn2cccc2)c2cc(C(=O)O)cnc21 | > 30.2
24 | O=C(NCC(O)c1ccsc1)c1sccc1OC(F)F (centres undefined) | > 30.2
25 | Cc1cc(NC(=O)C2CCN(c3ncccc3C#N)CC2)no1 | > 50.1

Row | SMILES | IC50 [µM]
26 | Cc1cc(C)n(-c2cccc(C(=O)Nc3n[nH]c(C4CCCO4)n3)c2)n1 (centres undefined) | > 30.2
27 | O[C@]12CCNC[C@H]1CN(c1ncccc1Cl)CC2 | > 30.2
28 | CN1CCN(c2ncc3c(=O)n(Cc4ccco4)ccc3n2)CC1 | > 30.2
29 | COCCN(Cc1cnn(C)c1)CC1CCOC1 (centres undefined) | > 30.2
30 | COc1c(C)cc(CNCc2ccnc(N3CCOCC3)c2)cc1C | > 30.2
31 | Cc1cccc(NC2CCN(C(=O)Nc3ccccn3)CC2)n1 | > 30.2
32 | COc1ccc(CN[C@@H]2CO[C@H](CNC(=O)N3CCOCC3)[C@H]2O)cc1 | > 30.2
33 | CC(C)c1noc(CN2CCN(C(=O)c3cccnc3O)CC2)n1 | > 30.2
34 | COc1ccccc1OCC(=O)NS(=O)(=O)c1cccnc1 | > 30.2
35 | O=C(NCCn1nc2ccccn2c1=O)c1cc[nH]n1 | > 30.2
36 | COC(=O)c1ccc(S(=O)(=O)N2CCC(Oc3cccnn3)CC2)cc1 | > 30.2
37 | CNc1cc(C)nc(C2CCN(CCO)CC2)n1 | > 30.2
38 | CCC(NC(=O)c1cc(CC(C)C)nn1C)c1cccc(C)n1 (centres undefined) | > 30.2
39 | c1cc(-c2nnc([C@H]3CCNC3)o2)ccn1 | > 30.2
40 | Cn1nccc1-c1ccc2nc(C3CCN(CC4CC4)CC3)nn2c1 | > 30.2
41 | COc1c(-c2ccc(O)cc2)oc2cc(O)cc(O)c2c1=O [ISOKAEMPFERIDE] | > 30.2
42 | Cc1ncc2c(n1)CCN(CCCc1nc3ccccc3o1)C2 | > 50.1
43 | COc1ccc(-c2nnsc2C(=O)N2CCC(C(N)=O)CC2)cc1 | > 30.2
44 | Cc1ccc(OCCC(=O)N2CCOCC2c2ncon2)cc1C (centres undefined) | > 30.2
45 | O=C(NCc1ccco1)[C@H]1C[C@@H]2CCN(c3nncs3)C[C@H]2O1 | > 30.2
46 | COc1ccccc1CC(C)CC(=O)NC(C)C (centres undefined) | > 30.2
47 | CN(C)Cc1cccc(-c2cccnc2C(=O)NCc2cn(C)cn2)c1 | > 30.2
48 | Cc1nc(O)cc(C2(C)CCCNC2)n1 (centres undefined) | > 30.2
49 | CCS(=O)(=O)c1ccc2oc([C@H]3CCN(Cc4ccccn4)C3)nc2c1 | > 30.2
